# Laboratory results published in patent US8927563B2, “Kinase inhibitor” (Respivert Limited, priority 2013, dated 2015).
# Where two headings read alike, the source gives them in different places.
# Key:
# Lck = Lck (Homo sapiens (Human), UniProt P06239); assay: Phosphoflow assay, cellular Lck inhibition in Jurkat cells; assay type: cell-based; details: H2O2 stimulated, read-out: IC50 Values, phospho-Lck (converted)
# Description: (§1) Jurkat T cells were cultured in starve medium (RPMI 1640+5% FBS) for 24 h prior to the experiment. Cells were harvested and resuspended at 10×10^6 cells/mL in starve medium and then plated into round-bottomed 96 well plates at 1×10^6 cells/well. Serial dilutions of test compound were added (1% final DMSO concentration) for 2 h prior to stimulation. Following pre-incubation with compound, cells were stimulated with H2O2 (0.05% final) for 5 min. The reaction was stopped by centrifugation at 2000 rpm (3 min, 4° C.), then the supernatant was removed and 100 μL of cold fix/perm solution (BD Fix/Perm kit #554714) added. Plates were incubated for 20 min at 4° C. before centrifugation and washing with supplied 1× wash medium (BD Fix/Perm kit #554714). Cells were stained for either phospho-p38α (T180/182), supplied by Cell Signalling Technology (9211s), or phospho-Lck (Y394), supplied by R&D (MAB7500). Antibodies were diluted to 5 μg/mL (R&D) or 1:200 (Cell Signalling Technology) in wash medium, before being incubated 1 h at 4° C. in the dark. Following 3 repeat washes with ice cold wash buffer, secondary antibody (anti-rabbit-FITC #F1362 or anti-mouse-FITC #F2883, both from Sigma) was added at a dilution of 1:1000 and incubated for 1 h at 4° C. in the dark. […] Cells were analysed by flow cytometry using BD Accuri C6.
# GSK3α = GSK3α (Homo sapiens (Human), UniProt P49840); assay: GSK3α enzyme inhibition (Method 2), Z-LYTE FRET; assay type: biochemical
# Description: The enzyme inhibitory activities of compounds disclosed herein are determined by FRET using synthetic peptides labelled with both donor and acceptor fluorophores (Z-LYTE, Invitrogen Ltd., Paisley, UK).
# The inhibitory activities of the compound of the invention against the GSK 3α enzyme isoform (Invitrogen), are evaluated by determining the level of activation/phosphorylation of the target peptide. The GSK3-α protein (500 ng/mL, 2.5 μL) is mixed with the test compound (2.5 μL at either 4 μg/mL, 0.4 μg/mL, 0.04 μg/mL, or 0.004 μg/mL) for 2 hr at RT. The FRET peptide (8 μM, 2.5 μL), which is a phosphorylation target for GSK3α, and ATP (40 μM, 2.5 μL) are then added to the enzyme/compound mixture and the resulting mixture incubated for 1 hr. Development reagent (protease, 5 μL) is added for 1 hr prior to detection in a fluorescence microplate reader (Varioskan® Flash, ThermoFisher Scientific).
# In all cases, the site-specific protease cleaves non-phosphorylated peptide only and eliminates the FRET signal. Phosphorylation levels of each reaction are calculated using the ratio of coumarin emission (donor) over fluorescein emission (acceptor), for which high ratios indicate high phosphorylation and low ratios indicate low phosphorylation levels. […]
# [1] = Human hepatocyte stability test; assay type: in vitro ADME; details: human hepatocytes
# Description: (§2) Assessment of certain in vitro ADME (absorption, distribution, metabolism, and excretion) parameters for Compound I was conducted by BioFocus (Saffron Walden, UK). The results reveal that Compound I is cleared rapidly by human hepatocytes and that it has a reduced liability for time-dependent cytochrome P450 inhibition.
# human hepatocytes = assay: Human hepatocyte stability test; assay type: in vitro ADME
# Description: as §2
# [2] = Pharmacokinetics after intravenous administration to rats; assay type: in vivo; details: intravenous 0.25 mg/kg
# Description: (§3) Studies were conducted by Sai Life Sciences (Hinjewadi, Pune, India) to investigate the plasma pharmacokinetics and total colon tissue distribution of Compound I. In particular, pharmacokinetic studies were carried out in: • male C57BL/6 mice, following a single oral administration; and • male Wistar rats following a single intravenous or oral administration.
# p38 MAPKα = p38 MAPKα (Homo sapiens (Human), UniProt Q16539); assay: Phosphoflow assay, cellular p38 MAPKα inhibition in Jurkat cells; assay type: cell-based; details: H2O2 stimulated, read-out: IC50 Values, phospho-p38 MAPKα (converted)
# Description: as §1
# Syk = Syk (Homo sapiens (Human), UniProt P43405); assay: KINOMEscan dissociation constant, Syk; assay type: binding
# Description: (§4) Kinase enzyme binding activities of compounds disclosed herein may be determined using a proprietary assay which measures active site-directed competition binding to an immobilized ligand (Fabian, M. A. et al., Nature Biotechnol., 2005, 23:329-336). These assays may be conducted by DiscoverX (formerly Ambit; San Diego, Calif.). The percentage inhibition produced by incubation with a test compound may be calculated relative to the non-inhibited control.
# [3] = Plasma pharmacokinetics and total colon distribution after oral administration to mice; assay type: in vivo; details: male, C57BL/6, mouse, total colon, oral 5 mg/kg, vehicle B, read-out: Median total colon concentration
# Description: as §3
# CYP3A4 = CYP3A4 (Homo sapiens (Human), UniProt P08684); assay: CYP3A4 inhibition with and without preincubation; assay type: in vitro ADME; details: for inhibition at 15 µM: human, read-out: 15 μM % Inh
# Description: as §2
# non-mutant kinases = assay: KinomeScan selectivity scores; assay type: binding
# Description: as §4
# CYP2C9 = CYP2C9 (Homo sapiens (Human), UniProt P11712); assay: CYP2C9 inhibition with and without preincubation; assay type: in vitro ADME; details: for inhibition at 15 µM: human, read-out: 15 μM % Inh
# Description: as §2
# Chain of CYP2C9 (P11712 whole entry): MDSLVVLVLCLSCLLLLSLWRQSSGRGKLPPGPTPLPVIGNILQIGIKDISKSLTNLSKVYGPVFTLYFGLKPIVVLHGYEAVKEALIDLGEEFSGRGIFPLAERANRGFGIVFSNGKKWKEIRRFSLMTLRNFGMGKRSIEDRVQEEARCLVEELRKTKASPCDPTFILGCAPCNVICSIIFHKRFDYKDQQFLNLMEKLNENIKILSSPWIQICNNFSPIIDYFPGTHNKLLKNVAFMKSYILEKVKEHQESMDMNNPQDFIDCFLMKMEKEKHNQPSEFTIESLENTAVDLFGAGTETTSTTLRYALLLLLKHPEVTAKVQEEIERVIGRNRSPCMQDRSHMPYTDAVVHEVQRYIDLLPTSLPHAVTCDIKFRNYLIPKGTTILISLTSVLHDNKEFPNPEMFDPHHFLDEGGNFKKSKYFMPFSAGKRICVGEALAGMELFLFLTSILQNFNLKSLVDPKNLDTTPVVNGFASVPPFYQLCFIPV
# Chain of CYP3A4 (P08684 whole entry): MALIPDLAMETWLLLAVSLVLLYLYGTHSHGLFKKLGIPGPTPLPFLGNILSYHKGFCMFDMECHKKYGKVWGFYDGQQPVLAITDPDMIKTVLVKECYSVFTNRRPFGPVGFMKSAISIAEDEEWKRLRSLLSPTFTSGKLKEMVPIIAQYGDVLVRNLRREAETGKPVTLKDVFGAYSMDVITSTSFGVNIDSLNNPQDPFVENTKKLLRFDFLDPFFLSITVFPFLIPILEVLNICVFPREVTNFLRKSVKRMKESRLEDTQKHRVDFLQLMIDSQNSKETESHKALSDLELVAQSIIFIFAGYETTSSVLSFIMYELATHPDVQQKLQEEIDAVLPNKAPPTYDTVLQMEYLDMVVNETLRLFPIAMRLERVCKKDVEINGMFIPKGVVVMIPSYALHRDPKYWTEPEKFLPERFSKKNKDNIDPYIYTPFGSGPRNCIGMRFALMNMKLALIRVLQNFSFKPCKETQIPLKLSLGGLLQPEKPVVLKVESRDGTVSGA
# Chain of GSK3α (P49840 whole entry): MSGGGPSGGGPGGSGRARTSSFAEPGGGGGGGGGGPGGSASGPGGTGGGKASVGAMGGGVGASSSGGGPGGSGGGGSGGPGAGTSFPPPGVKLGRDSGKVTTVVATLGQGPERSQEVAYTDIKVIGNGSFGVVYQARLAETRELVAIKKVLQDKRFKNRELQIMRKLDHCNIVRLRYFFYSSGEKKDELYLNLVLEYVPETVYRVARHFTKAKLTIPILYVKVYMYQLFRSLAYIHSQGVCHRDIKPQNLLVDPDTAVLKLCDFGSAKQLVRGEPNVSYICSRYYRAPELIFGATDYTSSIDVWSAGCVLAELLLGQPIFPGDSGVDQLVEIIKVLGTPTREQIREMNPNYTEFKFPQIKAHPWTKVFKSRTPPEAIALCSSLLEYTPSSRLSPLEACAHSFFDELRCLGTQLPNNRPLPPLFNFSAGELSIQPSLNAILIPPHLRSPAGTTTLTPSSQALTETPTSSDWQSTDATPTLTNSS
# Chain of p38 MAPKα (Q16539 whole entry, looked up): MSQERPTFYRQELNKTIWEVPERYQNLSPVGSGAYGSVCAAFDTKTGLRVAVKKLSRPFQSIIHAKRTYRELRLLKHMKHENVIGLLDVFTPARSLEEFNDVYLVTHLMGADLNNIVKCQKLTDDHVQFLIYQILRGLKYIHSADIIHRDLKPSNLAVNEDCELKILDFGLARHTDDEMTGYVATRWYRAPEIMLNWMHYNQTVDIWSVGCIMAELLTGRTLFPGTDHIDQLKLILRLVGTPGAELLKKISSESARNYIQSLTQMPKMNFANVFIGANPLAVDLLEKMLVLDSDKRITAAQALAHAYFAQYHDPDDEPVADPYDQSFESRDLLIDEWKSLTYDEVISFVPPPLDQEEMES
# Chain of Lck (P06239 whole entry): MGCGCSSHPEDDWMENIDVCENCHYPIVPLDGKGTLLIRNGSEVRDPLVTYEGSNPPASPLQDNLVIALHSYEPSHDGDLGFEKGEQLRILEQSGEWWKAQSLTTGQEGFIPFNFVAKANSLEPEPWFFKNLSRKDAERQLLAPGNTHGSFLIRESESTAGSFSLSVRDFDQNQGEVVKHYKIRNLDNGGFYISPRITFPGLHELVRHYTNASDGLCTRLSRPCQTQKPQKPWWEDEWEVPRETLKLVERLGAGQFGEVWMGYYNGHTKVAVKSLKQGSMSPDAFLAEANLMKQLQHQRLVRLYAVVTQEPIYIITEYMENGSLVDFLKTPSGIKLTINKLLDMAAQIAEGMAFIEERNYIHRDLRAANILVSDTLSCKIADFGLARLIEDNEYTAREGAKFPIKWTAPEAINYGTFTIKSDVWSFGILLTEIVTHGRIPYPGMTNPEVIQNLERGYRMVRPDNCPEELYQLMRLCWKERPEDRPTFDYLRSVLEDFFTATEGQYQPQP
structure (smiles),measurement,setting,value
"C#Cc1cc(Nc2nccc(Oc3ccc(NC(=O)Nc4cc(C(C)(C)C)cc(NS(C)(=O)=O)c4OC)c4ccccc34)n2)cc(C(=O)NCCOCCOCCOC)c1 [Compound I, 3-((4-((4-(3-(5-(tert-Butyl)-2-methoxy-3-(methylsulfonamido)phenyl)ureido)naphthalen-1-yl)oxy)pyrimidin-2-yl)amino)-5-ethynyl-N-(2-(2-(2-methoxyethoxy)ethoxy)ethyl)benzamide]",IC50,Lck,7.14 nM
same,IC50,GSK3α,411 nM
same,half-life,[1],34 min
same,hepatocyte CLint,[1]; read-out: Mean intrinsic clearance,41 µL/min/1e6 cells
same,Mean hepatic extraction ratio,human hepatocytes,0.85
same,CI,[2],4.8 mL/min/kg
same,AUC(0-inf),"[2]; male, Wistar, rat, plasma",871 ng·h/mL
same,AUC(0-t),"[2]; male, Wistar, rat, plasma",869 ng·h/mL
same,C0,"[2]; male, Wistar, rat, plasma",6540 ng/mL
same,half-life,"[2]; male, Wistar, rat, plasma",6 min
same,Vd,"[2]; male, Wistar, rat, plasma, read-out: Vss",0.03 L/kg
same,IC50,p38 MAPKα,23.8 nM
same,Kd,Syk,21 nM
same,concentration at 1 h,[3]; 1 h,0 ng/g
same,concentration at 2 h,[3]; 2 h,10.4 ng/g
same,concentration at 4 h,[3]; 4 h,420 ng/g
same,concentration at 6 h,[3]; 6 h,3080 ng/g
same,concentration at 8 h,[3]; 8 h,1950 ng/g
same,concentration at 12 h,[3]; 12 h,126 ng/g
same,concentration at 24 h,[3]; 24 h,23 ng/g
same,IC50,"CYP3A4; CYP3A4, 0 min preincubation",> 15 µM
same,IC50,"CYP3A4; CYP3A4, 30 min preincubation",7.8 µM
same,inhibition at 15 µM,"CYP3A4; CYP3A4, 0 min preincubation",31%
same,inhibition at 15 µM,"CYP3A4; CYP3A4, 30 min preincubation",54%
same,"number of individual kinase hits, S(1)","non-mutant kinases; 50 nM, % Ctrl <1",0
same,KinomeScan Selectivity Score S(10),"non-mutant kinases; 50 nM, % Ctrl <10",0.023
same,"number of individual kinase hits, S(10)","non-mutant kinases; 50 nM, % Ctrl <10",9
same,KinomeScan Selectivity Score S(35),"non-mutant kinases; 50 nM, % Ctrl <35",0.068
same,"number of individual kinase hits, S(35)","non-mutant kinases; 50 nM, % Ctrl <35",27
same,KinomeScan Selectivity Score S(1),"non-mutant kinases; 500 nM, % Ctrl <1",0.038
same,"number of individual kinase hits, S(1)","non-mutant kinases; 500 nM, % Ctrl <1",15
same,"number of individual kinase hits, S(10)","non-mutant kinases; 500 nM, % Ctrl <10",51
same,"number of individual kinase hits, S(35)","non-mutant kinases; 500 nM, % Ctrl <35",78
same,IC50,"CYP2C9; CYP2C9, 0 min preincubation",> 15 µM
same,IC50,"CYP2C9; CYP2C9, 30 min preincubation",> 15 µM
same,inhibition at 15 µM,"CYP2C9; CYP2C9, 0 min preincubation",21%
same,inhibition at 15 µM,"CYP2C9; CYP2C9, 30 min preincubation",37%
